Experimental data from PubChem BioAssay (NCI).
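Protocol summary: plate cells (96-well), add compound at 5 concentrations, incubate 48 h, interpolate endpoints linearly. TGI is the concentration that stops growth completely.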

What was measured:
Experiment in all cases: growth of human tumour cells (NCI), 48 h
786-0 renal = test system: 786-0 renal
A498 renal = test system: A498 renal
A549 NSCLC = test system: A549 NSCLC
ACHN renal = test system: ACHN renal
BT-549 breast = test system: BT-549 breast
CAKI-1 renal = test system: CAKI-1 renal
CCRF-CEM leukemia = test system: CCRF-CEM leukemia
COLO 205 colon = test system: COLO 205 colon
DU-145 prostate = test system: DU-145 prostate
EKVX NSCLC = test system: EKVX NSCLC
HCC-2998 colon = test system: HCC-2998 colon
HCT-116 colon = test system: HCT-116 colon
HCT-15 colon = test system: HCT-15 colon
HL-60(TB) leukemia = test system: HL-60(TB) leukemia
HOP-62 NSCLC = test system: HOP-62 NSCLC
HOP-92 NSCLC = test system: HOP-92 NSCLC
HS 578T breast = test system: HS 578T breast
HT29 colon = test system: HT29 colon
IGROV1 ovarian = test system: IGROV1 ovarian
K-562 leukemia = test system: K-562 leukemia
KM12 colon = test system: KM12 colon
LOX IMVI melanoma = test system: LOX IMVI melanoma
M14 melanoma = test system: M14 melanoma
MALME-3M melanoma = test system: MALME-3M melanoma
MCF7 breast = test system: MCF7 breast
MDA-MB-231 breast = test system: MDA-MB-231 breast
MDA-MB-435 = test system: MDA-MB-435
MDA-N = test system: MDA-N
MOLT-4 leukemia = test system: MOLT-4 leukemia
NCI-H226 lung = test system: NCI-H226 lung
NCI-H23 lung = test system: NCI-H23 lung
NCI-H460 lung = test system: NCI-H460 lung
NCI-H522 lung = test system: NCI-H522 lung
NCI/ADR-RES ovarian = test system: NCI/ADR-RES ovarian
OVCAR-3 ovarian = test system: OVCAR-3 ovarian
OVCAR-4 ovarian = test system: OVCAR-4 ovarian
OVCAR-5 ovarian = test system: OVCAR-5 ovarian
OVCAR-8 ovarian = test system: OVCAR-8 ovarian
PC-3 prostate = test system: PC-3 prostate
RPMI-8226 leukemia = test system: RPMI-8226 leukemia
RXF 393 renal = test system: RXF 393 renal
SF-268 CNS = test system: SF-268 CNS
SF-295 CNS = test system: SF-295 CNS
SF-539 CNS = test system: SF-539 CNS
SK-MEL-2 melanoma = test system: SK-MEL-2 melanoma
SK-MEL-28 melanoma = test system: SK-MEL-28 melanoma
SK-MEL-5 melanoma = test system: SK-MEL-5 melanoma
SK-OV-3 ovarian = test system: SK-OV-3 ovarian
SN12C renal = test system: SN12C renal
SNB-19 CNS = test system: SNB-19 CNS
SNB-75 CNS = test system: SNB-75 CNS
SR leukemia = test system: SR leukemia
SW-620 colon = test system: SW-620 colon
T-47D breast = test system: T-47D breast
TK-10 renal = test system: TK-10 renal
U251 CNS = test system: U251 CNS
UACC-257 melanoma = test system: UACC-257 melanoma
UACC-62 melanoma = test system: UACC-62 melanoma
UO-31 renal = test system: UO-31 renal

CCOP(=O)(OCC)C(c1ccccc1)N(C(=O)NC(F)(F)F)c1ccc(C)cc1 (stereo not drawn)
TGI (786-0 renal): > 100 µM
TGI (A498 renal): > 100 µM
TGI (A549 NSCLC): > 100 µM
TGI (ACHN renal): > 100 µM
TGI (BT-549 breast): > 100 µM
TGI (CAKI-1 renal): > 100 µM
TGI (CCRF-CEM leukemia): > 100 µM
TGI (COLO 205 colon): > 100 µM
TGI (DU-145 prostate): > 100 µM
TGI (EKVX NSCLC): > 100 µM
TGI (HCC-2998 colon): > 100 µM
TGI (HCT-116 colon): > 100 µM
TGI (HCT-15 colon): > 100 µM
TGI (HL-60(TB) leukemia): > 100 µM
TGI (HOP-62 NSCLC): > 100 µM
TGI (HOP-92 NSCLC): > 100 µM
TGI (HS 578T breast): > 100 µM
TGI (HT29 colon): > 100 µM
TGI (IGROV1 ovarian): > 100 µM
TGI (K-562 leukemia): > 100 µM
TGI (KM12 colon): > 100 µM
TGI (LOX IMVI melanoma): > 100 µM
TGI (M14 melanoma): > 100 µM
TGI (MALME-3M melanoma): > 100 µM
TGI (MCF7 breast): > 100 µM
TGI (MDA-MB-231 breast): > 100 µM
TGI (MDA-MB-435): > 100 µM
TGI (MDA-N): > 100 µM
TGI (MOLT-4 leukemia): > 100 µM
TGI (NCI-H226 lung): > 100 µM
TGI (NCI-H23 lung): > 100 µM
TGI (NCI-H460 lung): > 100 µM
TGI (NCI-H522 lung): > 100 µM
TGI (NCI/ADR-RES ovarian): > 100 µM
TGI (OVCAR-3 ovarian): > 100 µM
TGI (OVCAR-4 ovarian): > 100 µM
TGI (OVCAR-5 ovarian): > 100 µM
TGI (OVCAR-8 ovarian): > 100 µM
TGI (PC-3 prostate): > 100 µM
TGI (RPMI-8226 leukemia): > 100 µM
TGI (RXF 393 renal): > 100 µM
TGI (SF-268 CNS): > 100 µM
TGI (SF-295 CNS): > 100 µM
TGI (SF-539 CNS): > 100 µM
TGI (SK-MEL-2 melanoma): > 100 µM
TGI (SK-MEL-28 melanoma): > 100 µM
TGI (SK-MEL-5 melanoma): > 100 µM
TGI (SK-OV-3 ovarian): > 100 µM
TGI (SN12C renal): > 100 µM
TGI (SNB-19 CNS): > 100 µM
TGI (SNB-75 CNS): > 100 µM
TGI (SR leukemia): > 100 µM
TGI (SW-620 colon): > 100 µM
TGI (T-47D breast): > 100 µM
TGI (TK-10 renal): > 100 µM
TGI (U251 CNS): > 100 µM
TGI (UACC-257 melanoma): > 100 µM
TGI (UACC-62 melanoma): > 100 µM
TGI (UO-31 renal): > 100 µM

CC(Cl)(CCC(Cl)C(C)(C)Cl)C(=O)CBr (stereo not drawn)
TGI (786-0 renal): 20.7 µM
TGI (A498 renal): 31.1 µM
TGI (A549 NSCLC): 43 µM
TGI (ACHN renal): 20.9 µM
TGI (BT-549 breast): 27.3 µM
TGI (CAKI-1 renal): 27.8 µM
TGI (CCRF-CEM leukemia): > 21.5 µM
TGI (COLO 205 colon): 18.4 µM
TGI (DU-145 prostate): 33.7 µM
TGI (EKVX NSCLC): 30.9 µM
TGI (HCC-2998 colon): 30.9 µM
TGI (HCT-116 colon): 18.2 µM
TGI (HCT-15 colon): 21.7 µM
TGI (HL-60(TB) leukemia): > 100 µM
TGI (HOP-62 NSCLC): 32.5 µM
TGI (HOP-92 NSCLC): 20.8 µM
TGI (HS 578T breast): 58.1 µM
TGI (HT29 colon): 32.3 µM
TGI (IGROV1 ovarian): 26.7 µM
TGI (K-562 leukemia): > 100 µM
TGI (KM12 colon): 29.6 µM
TGI (LOX IMVI melanoma): 5.76 µM
TGI (M14 melanoma): 21.8 µM
TGI (MALME-3M melanoma): 24.8 µM
TGI (MCF7 breast): 28.5 µM
TGI (MDA-MB-231 breast): 23.9 µM
TGI (MDA-MB-435): 30.6 µM
TGI (MDA-N): 21.3 µM
TGI (MOLT-4 leukemia): 3.81 µM
TGI (NCI-H226 lung): 33.7 µM
TGI (NCI-H23 lung): 39.5 µM
TGI (NCI-H460 lung): 32.3 µM
TGI (NCI-H522 lung): 3.94 µM
TGI (NCI/ADR-RES ovarian): 74.2 µM
TGI (OVCAR-3 ovarian): 29.5 µM
TGI (OVCAR-4 ovarian): 7.46 µM
TGI (OVCAR-5 ovarian): 31.6 µM
TGI (OVCAR-8 ovarian): 23.7 µM
TGI (PC-3 prostate): 28.2 µM
TGI (RPMI-8226 leukemia): 7.99 µM
TGI (RXF 393 renal): 11.2 µM
TGI (SF-268 CNS): 31.7 µM
TGI (SF-295 CNS): 55.4 µM
TGI (SF-539 CNS): 29.8 µM
TGI (SK-MEL-2 melanoma): 30.3 µM
TGI (SK-MEL-28 melanoma): 31.6 µM
TGI (SK-MEL-5 melanoma): 21 µM
TGI (SK-OV-3 ovarian): 26.9 µM
TGI (SN12C renal): 28.7 µM
TGI (SNB-19 CNS): > 85.5 µM
TGI (SNB-75 CNS): 26.5 µM
TGI (SR leukemia): 6.54 µM
TGI (SW-620 colon): 4.96 µM
TGI (T-47D breast): 50.7 µM
TGI (TK-10 renal): 24.1 µM
TGI (U251 CNS): 29.8 µM
TGI (UACC-257 melanoma): 25.5 µM
TGI (UACC-62 melanoma): 22.7 µM
TGI (UO-31 renal): 22 µM
